Data taken from patent US20040152715A1, “Cycloalkylene amide compounds as NR2B receptor antagonists” (priority 2002, published 2004).

Experiments:
[1] = target: T1, human NR1b/2B receptor (Homo sapiens, UniProt Q13224); experiment: Human NR2B Cell Functional Assay; format: cell-based; conditions: statement in words in Background Art; test not named
T1 construct: expressed in transfected cells
Description: Human NR2B Cell Functional Assay
HEK293 cells stably expressing human NR1b/2B receptor were used for cell functional assay. Cells were grown in 75-cm^2 culture flasks, using Dulbecco's modified Eagle's medium (DMEM, high glucose) supplemented with 10% fetal bovine, 52 μg/ml Zeocin, 530 μg/ml Geneticin, 100 units/ml penicillin and 100 μg/ml streptomycin. Cells were maintained in a humidified atmosphere in 5% CO2 at 37° C., and 50-60% confluent cells were harvested by 0.05% trypsin containing 0.53 mM EDTA. The day before the experiment, expression of NR1b/2B receptor was induced by 5 μM ponasteron A in DMEM (40 ml) in the presence of 400 μM ketamine to prevent excitotoxicity. […]
Cells were washed with 10 ml of Ca^2+-free Krebs-Ringer Hepes buffer (KRH) containing 400 μM ketamine, and the loading of 5 μM fura-2 acetoxymethyl ester was made for 2 hrs at room temperature in the presence of 400 μM ketamine in Ca^2+-free KRH (10 ml). […] Fura-2 fluorescence (excitation wavelengths: 340 nm and 380 nm; emission wavelengths 510-520 nm) was monitored with a fluorescence imaging system, FDSS6000. The Δ fluorescence ratio F340/F380 (i.e., the fluorescence ratio immediately post-agonist—the basal fluorescence ratio; calculated as AUC) was used for evaluation of drug effects on agonists-induced changes in intracellular Ca^2+. The basal fluorescence ratio was determined in the presence of 10 μM MK-801.

[2] = target: T2, NR2B receptor (Rattus norvegicus, UniProt P35439+Q00960); experiment: NR2B Binding Assay; conditions: statement in words in Background Art on prior-art compounds; test not named
T2 construct: Membranes were prepared by homogenization of forebrain of male CD rats; from tissue; host or cells: rat forebrain P2 membranes
Description: The activity of the cycloalkylene amide compounds of the present invention, as NR2B antagonists, is determined by their ability to inhibit the binding of NR2B subunit at its receptor sites employing radioactive ligands.
The NR2B antagonist activity of the cycloalkylene amide compounds is evaluated by using the standard assay procedure described in, for example, J. Pharmacol., 331, pp117-126, 1997. This method essentially involves determining the concentration of the individual compound required to reduce the amount of radiolabelled NR2B ligands by 50% at their receptor sites, thereby affording characteristic IC50 values for each compound tested. More specifically, the assay is carried out as follows.
Membranes were prepared by homogenization of forebrain of male CD rats weighing between 170˜190 g by using glass-Teflon homogenizer in 0.32 M sucrose at 4° C. The crude nuclear pellet was removed by centrifugation at 1000×g for 10 min, and the supernatant centrifuged at 17000×g for 25 min. […]
For the saturation assay, receptor saturation was determined by incubating [^3H]-CP-98,113 and 50 μg protein of P2 membrane for 60 minutes at room temperature in a final 100 μl of incubation buffer (50 mM Tris HCl, pH7.4). Total and non-specific bindings (in the presence of 10 μM of unlabeled CP-98,113) were determined in a range of [^3H]-CP-98113 concentrations (0.625 nM to 60 nM). […]
For the competition assay, test compounds were incubated in duplicate with 5 nM [^3H]-CP-98,113 and 50 μg protein of P2 membrane for 60 minutes at room temperature in a final 100 μl of 50 mM Tris HCl buffer (pH7.4). Nonspecific binding was determined by 10 μM of unlabeled CP-98,113 (25 μl). […]
All incubations were terminated by rapid vacuum filtration over 0.2% polyethyleneimine soaked Whatman GF/B glass fibre filter paper using a SKATRON cell harvester followed by three washes with ice-cold filtration buffer (5 mM Tris HCl, pH 7.4.). Receptor-bound radioactivity was quantified by liquid scintillation counting using Packard LS counter. […]

[3] = QT prolongation; conditions: statement in words in Background Art; attributed to HERG inhibition

T2 sequence (Q00960 27-1482, other chains not shown): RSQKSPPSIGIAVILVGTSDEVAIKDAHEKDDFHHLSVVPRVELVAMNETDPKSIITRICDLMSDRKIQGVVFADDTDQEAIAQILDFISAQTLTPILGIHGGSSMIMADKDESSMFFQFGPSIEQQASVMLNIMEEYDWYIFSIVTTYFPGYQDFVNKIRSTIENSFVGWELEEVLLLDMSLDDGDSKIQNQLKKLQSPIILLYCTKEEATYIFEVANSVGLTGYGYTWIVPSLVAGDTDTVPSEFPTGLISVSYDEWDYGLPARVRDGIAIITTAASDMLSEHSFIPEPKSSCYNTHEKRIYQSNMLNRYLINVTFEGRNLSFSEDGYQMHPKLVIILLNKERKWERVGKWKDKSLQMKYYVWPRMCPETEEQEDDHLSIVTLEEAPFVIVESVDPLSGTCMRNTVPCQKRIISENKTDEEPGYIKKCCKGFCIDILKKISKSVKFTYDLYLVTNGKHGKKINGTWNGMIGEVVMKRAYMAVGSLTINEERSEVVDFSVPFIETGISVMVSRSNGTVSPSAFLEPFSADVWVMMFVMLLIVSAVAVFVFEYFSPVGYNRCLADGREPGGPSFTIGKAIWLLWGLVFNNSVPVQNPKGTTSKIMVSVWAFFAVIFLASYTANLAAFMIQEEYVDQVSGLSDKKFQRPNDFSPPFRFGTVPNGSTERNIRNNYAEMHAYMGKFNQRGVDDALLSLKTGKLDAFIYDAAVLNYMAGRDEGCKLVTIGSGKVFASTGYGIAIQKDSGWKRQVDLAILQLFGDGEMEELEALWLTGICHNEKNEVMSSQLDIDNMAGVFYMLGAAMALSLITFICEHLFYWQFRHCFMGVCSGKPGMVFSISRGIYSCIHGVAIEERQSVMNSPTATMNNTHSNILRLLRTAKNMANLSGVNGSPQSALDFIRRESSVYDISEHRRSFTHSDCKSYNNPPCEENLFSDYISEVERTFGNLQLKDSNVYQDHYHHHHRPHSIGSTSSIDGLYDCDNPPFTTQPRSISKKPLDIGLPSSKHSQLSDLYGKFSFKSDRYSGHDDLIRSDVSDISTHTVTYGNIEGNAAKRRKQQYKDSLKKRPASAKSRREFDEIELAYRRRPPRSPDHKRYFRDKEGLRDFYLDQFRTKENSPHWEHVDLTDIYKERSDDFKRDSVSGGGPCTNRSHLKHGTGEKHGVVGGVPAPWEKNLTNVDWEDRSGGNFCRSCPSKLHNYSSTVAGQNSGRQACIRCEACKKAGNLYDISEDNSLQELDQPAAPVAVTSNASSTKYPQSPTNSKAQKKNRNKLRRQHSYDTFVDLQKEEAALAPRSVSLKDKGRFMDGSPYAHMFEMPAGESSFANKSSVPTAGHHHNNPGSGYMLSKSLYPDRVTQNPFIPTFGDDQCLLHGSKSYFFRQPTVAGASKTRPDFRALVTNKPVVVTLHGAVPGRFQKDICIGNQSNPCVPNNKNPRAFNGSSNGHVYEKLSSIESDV
T1 sequence (Q13224 27-1484): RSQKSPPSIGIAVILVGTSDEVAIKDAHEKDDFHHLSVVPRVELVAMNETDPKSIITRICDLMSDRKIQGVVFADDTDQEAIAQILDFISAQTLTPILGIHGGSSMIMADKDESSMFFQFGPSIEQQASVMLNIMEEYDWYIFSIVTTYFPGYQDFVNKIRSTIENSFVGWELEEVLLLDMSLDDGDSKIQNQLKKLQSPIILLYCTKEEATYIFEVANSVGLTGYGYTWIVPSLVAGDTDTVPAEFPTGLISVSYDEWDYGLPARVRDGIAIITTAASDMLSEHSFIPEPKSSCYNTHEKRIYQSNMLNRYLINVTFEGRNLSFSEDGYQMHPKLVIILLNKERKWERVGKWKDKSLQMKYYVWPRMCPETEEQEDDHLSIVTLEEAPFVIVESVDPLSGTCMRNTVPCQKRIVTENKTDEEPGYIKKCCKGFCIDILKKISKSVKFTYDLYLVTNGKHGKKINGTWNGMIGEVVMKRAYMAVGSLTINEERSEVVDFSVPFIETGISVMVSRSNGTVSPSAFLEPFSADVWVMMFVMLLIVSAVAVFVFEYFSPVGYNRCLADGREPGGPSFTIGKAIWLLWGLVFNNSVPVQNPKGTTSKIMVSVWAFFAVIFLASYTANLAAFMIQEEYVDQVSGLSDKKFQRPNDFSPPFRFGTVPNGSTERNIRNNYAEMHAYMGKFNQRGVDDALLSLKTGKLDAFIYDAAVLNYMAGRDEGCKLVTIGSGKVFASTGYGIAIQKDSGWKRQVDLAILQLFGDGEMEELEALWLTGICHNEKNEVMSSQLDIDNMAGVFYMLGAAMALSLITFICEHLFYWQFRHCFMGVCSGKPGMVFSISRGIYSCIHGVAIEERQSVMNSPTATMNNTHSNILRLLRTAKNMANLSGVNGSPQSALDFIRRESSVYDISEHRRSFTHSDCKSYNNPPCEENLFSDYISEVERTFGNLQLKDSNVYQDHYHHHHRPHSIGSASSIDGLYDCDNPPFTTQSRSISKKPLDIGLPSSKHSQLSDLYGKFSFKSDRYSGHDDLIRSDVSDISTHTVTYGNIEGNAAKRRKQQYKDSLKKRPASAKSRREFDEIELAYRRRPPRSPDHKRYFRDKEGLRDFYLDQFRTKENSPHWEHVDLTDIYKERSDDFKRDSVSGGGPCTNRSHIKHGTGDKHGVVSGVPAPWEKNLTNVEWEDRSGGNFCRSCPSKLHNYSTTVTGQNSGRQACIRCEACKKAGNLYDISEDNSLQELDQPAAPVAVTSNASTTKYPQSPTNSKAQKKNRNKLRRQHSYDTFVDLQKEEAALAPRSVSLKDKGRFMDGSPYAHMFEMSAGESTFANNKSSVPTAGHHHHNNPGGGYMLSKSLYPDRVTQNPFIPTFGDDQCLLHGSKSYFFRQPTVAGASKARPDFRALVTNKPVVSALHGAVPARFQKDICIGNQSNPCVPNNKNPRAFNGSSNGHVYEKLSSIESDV

| SMILES | NR2B receptor antagonist activity [1] | binding affinity (NR2B receptor) [2] | QT prolongation [3] | melting point |
| --- | --- | --- | --- | --- |
| O=C(CCc1ccccc1)N[C@H]1CO[C@H](c2ccc(O)cc2)OC1 [B] | insufficient | insufficient |  |  |
| O=C(CCc1ccccc1)N[C@H]1CC[C@H](c2ccc(O)cc2)CC1 [Compound A] |  | insufficient |  |  |
| CN(CCCc1ccc(F)cc1)[C@H]1CC[C@H](c2ccc3[nH]c(=O)oc3c2)CC1 [Compound E] |  | potent | shows QT prolongation |  |
| O=C(CCc1ccc(F)cc1)N[C@H]1CC[C@H](c2ccc(O)cn2)CC1 [Example 12, 3-(4-fluorophenyl)-N-[trans-4-(5-hydroxypyridin-2-yl)cyclohexyl]propanamide] |  |  |  | 195.4 °C |
| O=C(CCc1ccc(Cl)cc1Cl)N[C@H]1CC[C@](O)(c2ccc(O)cn2)CC1 [Example 7, 3-(2,4-dichlorophenyl)-N-[cis-4-hydroxy-4-(5-hydroxypyridin-2-yl)cyclohexyl]propanamide] |  |  |  | 198.1 °C |
